Results taken from patent US9457029B2, “Treatment of genotyped diabetic patients with DPP-IV inhibitors such as linagliptin” (Boehringer Ingelheim International GmbH, priority 2009, dated 2016).
Each block holds one compound with its values, some of them ahead of it.

Tests used:
[1] = tested on: inadequately controlled, metformin-treated type 2 diabetic patients; test: 12-week randomized, double-blind study of BI 1356 add-on to metformin vs placebo or open label glimepiride; assay type: in vivo, human
Method: Efficacy and safety of BI 1356 (1, 5, or 10 mg qd), a potent and selective dipeptidyl peptidase-4 (DPP-4) inhibitor, was examined in inadequately controlled, metformin-treated (MET, ≧1 g daily) type 2 diabetic patients (T2DM; HbA1c at baseline 7.5-10.0%). Effects were compared to add-on of placebo (PBO) or of open label glimepiride (GLIM; 1 to 3 mg qd) in a 12-week randomized, double-blind study. Antidiabetic medication other than metformin was washed out for 6 weeks (34.7% of the patients).
The primary endpoint was change from baseline in HbA1c, adjusted for prior antidiabetic medication. 333 patients (mean baseline HbA1c 8.3%; fasting plasma glucose [FPG] 185 mg/dL) were randomized to BI 1356, PBO or open-label GLIM. […] Reductions in FPG from baseline to Week 12 with BI 1356 were statistically significant (1 mg, −19 mg/dL; 5 mg, −35 mg/dL; 10 mg, −30 mg/dL). […] For this dose, >80% DPP-4 inhibition at trough in >80% of the patients at week 12 was achieved.
In total, 106 patients (43.1%) experienced adverse events (AEs) with similar incidences across all treatments. Most frequently reported episodes were nasopharyngitis (7.5%), diarrhoea (3.3%), and nausea (3.0%). […] Ten patients (3.7%) experienced serious AEs but none of these events were considered drug-related.

[2] = tested on: patients with type 2 diabetes mellitus and insufficient glycemic control; assay type: in vivo, human
Method: A multi-center, 24-week, randomized, double-blind, placebo-controlled, parallel group study investigates the efficacy and safety of initial combination therapy with the DPP-4 inhibitor linagliptin (LI) and pioglitazone (PIO). […] Mean baseline characteristics (HbA1c 8.6%; fasting plasma glucose [FPG] 190 mg/dL; age 57.5 yrs; BMI 29.0 kg/m2) are similar between the groups. […] After 24 weeks of treatment, the adjusted mean change in HbA1c for the patients in the LI+ PIO group (full analysis set, last observation carried forward) is −1.06% (standard error (SE)±0.06). The difference in the adjusted mean HbA1c for the LI+ PIO group compared with PBO+PIO is −0.51% (p<0.0001; 95% confidence interval (CI), −0.71, −0.30). […] The proportion of patients that experienced at least one adverse event (AE) is similar for both LI+ PIO and PBO+PIO groups (136, 52.5% vs. 53.1%, respectively). Hypoglycemia is rare, occurring in 3 patients (1.2%) in the LI+ PIO group and none in the PBO+PIO group. All hypoglycemic events are of mild intensity.

[3] = tested on: Japanese patients with type 2 diabetes mellitus; conditions: VB 0.2 mg tid
the diabetic = conditions: metformin on its own; cited from earlier work
[4] = 5 mg LI plus 30 mg PIO qd or 30 mg PIO plus placebo qd, 24 weeks

drug-related hypoglycaemia, number of patients ([1]; GLIM 1 to 3 mg qd add-on to metformin, 12 weeks): 3 patients
Structure (SMILES): CCC1=C(C)CN(C(=O)NCCc2ccc(S(=O)(=O)NC(=O)N[C@H]3CC[C@H](C)CC3)cc2)C1=O [GLIM, glimepiride, reference compound]
mean PBO corrected reduction in HbA1c ([1]; open label GLIM 1 to 3 mg qd add-on to metformin, Week 12): −0.90%

hypoglycemia, number of patients ([2]; in vivo): none
Structure (SMILES): CCc1ccc(CCOc2ccc(CC3SC(=O)NC3=O)cc2)nc1 (stereo not drawn) [PBO+PIO, pioglitazone]
patients achieving a reduction in HbA1c of ≧0.5% [2, 4]: 50.8% | patients achieving a target HbA1c of <7% [2, 4]: 30.5% | proportion of patients that experienced at least one adverse event (AE) ([2]; in vivo): 53.1%

Structure (SMILES): OCC(CO)N[C@H]1C[C@](O)(CO)[C@@H](O)[C@H](O)[C@H]1O [VB, voglibose, reference compound]
proportion of patients whose HbA1c level lowered by ≧0.5% ([3]; 26 weeks): 37.7% | proportion of patients achieving HbA1c<7.0% ([3]; after 26 weeks): 22.2%

Structure (SMILES): CN(C)C(=N)N=C(N)N [metformin]
average improvement in the HbA1c value (the diabetic): 1.0-1.5%
